Experimental data taken from patent US20220380385A1, “PYRIMIDINE FIVE-MEMBERED NITROGEN HETEROCYCLIC DERIVATIVE, PREPARATION METHOD THEREOF AND PHARMACEUTICAL USE THEREOF” (TUOJIE BIOTECH(SHANGHAI) CO., LTD., priority 2019, published 2022).
pIC50: −log10 of the molar value.

Legend:
[1] = molecular target: T1, full-length SHP2 (aa 1-593) (Homo sapiens, UniProt Q06124); test: Activity on SHP2 phosphatase (DiFMUP fluorescence)
T1 sequence (Q06124 1-593): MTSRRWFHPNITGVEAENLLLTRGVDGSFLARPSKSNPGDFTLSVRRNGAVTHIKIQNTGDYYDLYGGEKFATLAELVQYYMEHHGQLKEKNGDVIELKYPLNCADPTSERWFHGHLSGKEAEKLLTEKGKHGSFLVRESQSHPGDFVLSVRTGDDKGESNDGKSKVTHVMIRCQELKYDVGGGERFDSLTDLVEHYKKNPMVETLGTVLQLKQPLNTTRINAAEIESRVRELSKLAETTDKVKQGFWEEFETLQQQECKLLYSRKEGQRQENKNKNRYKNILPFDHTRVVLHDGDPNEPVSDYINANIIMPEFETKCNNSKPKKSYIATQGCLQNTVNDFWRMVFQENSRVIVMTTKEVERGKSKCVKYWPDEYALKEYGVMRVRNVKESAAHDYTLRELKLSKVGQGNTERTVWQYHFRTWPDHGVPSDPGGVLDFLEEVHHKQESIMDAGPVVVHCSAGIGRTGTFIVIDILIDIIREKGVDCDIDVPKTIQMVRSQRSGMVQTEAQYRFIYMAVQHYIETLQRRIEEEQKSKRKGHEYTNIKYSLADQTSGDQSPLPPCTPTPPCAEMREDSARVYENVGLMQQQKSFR
Procedure: 0.2 nM recombinantly expressed full-length SHP2 (aa 1-593), 0.5 nM activated polypeptide IRS1 with dual phosphorylation sites (sequence: H2N-LN(pY)IDLDLY(dPEG8)LST(pY)ASINFQK-amide), and a series of concentrations of the test compound (final concentrations of 1 μM, 0.3 μM, 0.1 μM, 0.03 μM, 0.01 μM, 0.003 μM, 0.001 M, 0.0003 μM, 0.0001 μM and 0.00003 μM) were added into the phosphatase reaction solution (60 mM HEPES, PH 7.5 0.005% Brij-35, 75 mM NaCl, 75 mM KCl, 1 mM EDTA, 5 mM DTT), followed by shaking (350 rpm) at room temperature for 30 minutes. Then the reaction substrate DiFMUP was added at a final concentration of 30 μM, and the reaction solution was reacted at room temperature for 30 minutes. Then the phosphatase reaction was stopped by adding 5 μL of the reaction stop solution (60 mM HEPES, pH 7.5, 0.2% SDS). Ex358 nm/Em455 fluorescence value was read on the fluorescence plate reader MD SpectraMax.
The IC50 value of compounds was calculated by using the four-parameter logit method. […] Different concentrations correspond to different inhibition rates of phosphatase activity. A reverse curve was plotted and the IC50 of the inhibitors was calculated from the curve. The IC50 of compounds was calculated by using Primer premier 6.0.

[2] = In vivo pharmacokinetics in cynomolgus monkeys (gavage); conditions: male, plasma, po, 5 mg/kg, original drug, cynomolgus monkey, 5 mpk
Procedure: Cynomolgus monkeys were used as the test animals. The plasma drug concentration at different times after the cynomolgus monkeys were given the compounds of the invention by gavage was determined by using the LC/MS/MS method. The in vivo pharmacokinetic behavior of the compounds of the present invention in cynomolgus monkeys was studied, and pharmacokinetic characteristics thereof were evaluated.
Test animals: 3 healthy, 2-5 years old male cynomolgus monkeys in each group;
Administration by gavage: a certain amount of drug was weighed, and 0.5% by mass of hypromellose, 0.1% by volume of Tween 80 and 99.4% by volume of water were added thereto to formulate a white suspension at 1 mg/mL.
The cynomolgus monkeys were fasted overnight, and then the drug was administered by gavage at a dose of 5 mg/kg.
Cynomolgus monkeys were administered the compounds of the present invention by gavage. At 0.25, 0.5, 1, 2, 4, 8 and 24 hours after administration, 0.2 mL of blood was collected from the peripheral vein and placed in a test tube containing EDTA-K2. The tube was centrifuged at 2 to 8° C., 2000 rpm for 10 minutes to separate the plasma, which was stored at −75° C.
Determination of the content of the test compounds in cynomolgus monkey plasma after administration of different concentrations of drugs by gavage: 55 μL of cynomolgus monkey plasma at each time after administration was taken, and 200 μL of a solution of the internal standard verapamil or dexamethasone in acetonitrile. The mixture was mixed by vortexing for 30 seconds, centrifuged at 4° C., 3900 rpm for 15 minutes. The supernatant of the plasma samples were collected and diluted three times with water, and 15 μL was taken for LC/MS/MS analysis.

CYP2D6 = molecular target: T2, CYP2D6 (Homo sapiens, UniProt P10635); test: CYP inhibition in mixed human liver microsomes, CYP2D6 (bufurolol hydrochloride); type: in vitro ADME
T2 construct: Mixed human liver microsomes from 150 donors; tissue Corning 452117; host or cells: pooled human liver microsomes (150 donors)
T2 sequence (P10635 whole entry): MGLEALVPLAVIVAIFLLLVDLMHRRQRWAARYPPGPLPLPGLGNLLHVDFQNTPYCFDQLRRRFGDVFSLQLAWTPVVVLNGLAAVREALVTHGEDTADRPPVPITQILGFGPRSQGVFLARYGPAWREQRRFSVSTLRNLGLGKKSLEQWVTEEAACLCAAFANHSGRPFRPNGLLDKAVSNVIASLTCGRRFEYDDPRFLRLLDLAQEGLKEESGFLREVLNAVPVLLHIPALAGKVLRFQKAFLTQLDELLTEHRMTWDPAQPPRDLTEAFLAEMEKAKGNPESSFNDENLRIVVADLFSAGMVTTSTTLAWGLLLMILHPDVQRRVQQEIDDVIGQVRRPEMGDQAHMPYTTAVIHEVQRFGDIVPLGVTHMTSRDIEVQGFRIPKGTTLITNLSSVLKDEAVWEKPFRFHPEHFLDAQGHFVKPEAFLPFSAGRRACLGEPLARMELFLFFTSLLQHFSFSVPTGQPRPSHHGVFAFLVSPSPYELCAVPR
Procedure: (§1) Mixed human liver microsomes from 150 donors (purchased from Corning, catalog number 452117) were used to evaluate the representative substrate metabolic responses of the five main human CYP subtypes (CYP1A2, CYP2C9, CYP2C19, CYP2D6 and CYP3A4/5). The influence of different concentrations of test compounds on the metabolic responses of phenacetin (CYP1A2), diclofenac sodium (CYP2C9), S-mephenytoin (CYP2C19), bufurolol hydrochloride (2D6) and midazolam (CYP3A4/5) was determined by liquid chromatography tandem mass spectrometry (LC/MS/MS).
(§2) 200 μL of the reaction system (100 mmol/L phosphate buffer, pH 7.4, containing 0.3% DMSO, 0.6% acetonitrile and 0.1% methanol by volume respectively) with 30 µM phenacetin, 10 μM diclofenac sodium, 35 μM S-mephenytoin, 5 μM bufurolol hydrochloride, 3 μM midazolam, 1 mM NADPH, test compound (at a concentration of 0.1, 0.3, 1, 3, 10 and 30 μmol/L respectively) or positive compound or blank control and mixed human liver microsomes (0.2 mg/mL) was incubated at 37° C. for 5 minutes. […]
(§3) The peak area was calculated based on the chromatograms. The residual activity ratio (%) was calculated using the following equation: […]
(§4) The CYP median inhibitory concentration (IC50) was calculated by Excel XLfit 5.3.1.3.

CYP2C9 = molecular target: T3, CYP2C9 (Homo sapiens, UniProt P11712); test: CYP inhibition in mixed human liver microsomes, CYP2C9 (diclofenac sodium); type: in vitro ADME
T3 construct: Mixed human liver microsomes from 150 donors; tissue Corning 452117; host or cells: pooled human liver microsomes (150 donors)
T3 sequence (P11712 whole entry): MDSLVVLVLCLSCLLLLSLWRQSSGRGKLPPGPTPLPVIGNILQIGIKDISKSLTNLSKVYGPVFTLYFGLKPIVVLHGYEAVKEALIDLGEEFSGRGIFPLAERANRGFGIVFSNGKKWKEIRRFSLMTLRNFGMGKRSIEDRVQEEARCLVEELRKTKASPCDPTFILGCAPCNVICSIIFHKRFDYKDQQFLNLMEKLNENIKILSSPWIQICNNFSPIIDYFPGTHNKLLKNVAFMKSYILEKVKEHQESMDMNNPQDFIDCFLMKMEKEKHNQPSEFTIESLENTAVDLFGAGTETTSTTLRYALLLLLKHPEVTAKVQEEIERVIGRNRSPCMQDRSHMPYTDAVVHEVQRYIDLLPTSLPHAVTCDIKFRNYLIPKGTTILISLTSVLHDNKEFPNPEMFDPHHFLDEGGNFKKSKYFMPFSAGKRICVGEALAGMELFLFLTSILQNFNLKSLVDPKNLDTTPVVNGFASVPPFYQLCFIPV
Procedure: as §1, §2, §3, §4

CYP3A4/5 = test: CYP inhibition in mixed human liver microsomes, CYP3A4/5 (midazolam); type: in vitro ADME; conditions: pH 7.4, mixed human liver microsomes 0.2 mg/mL, read-out: Median inhibitory concentration (IC50) CYP 3A4/5
Procedure: as §1, §2, §3, §4

[2H]C([2H])([2H])Nc1nccc(Sc2c(C)nc(N3CCC4(CC3)Cc3ncccc3[C@H]4N)n3ccnc23)c1Cl [Example 3, (S)-1′-(8-((3-Chloro-2-((methyl-d3)amino)pyridin-4-yl)thio)-7-methylimidazo[1,2-c]pyrimidin-5-yl)-5,7-dihydrospiro[cyclopenta[b]pyridine-6,4′-piperidin]-5-amine]
pIC50 [1]: 8.35 | AUC ([2]; read-out: Area under curve AUC): 72300 ng·h/mL | Cmax ([2]; read-out: Maximum blood conc. Cmax): 12200 ng/mL | pIC50 (CYP2D6): < 4.70 | pIC50 (CYP2C9): < 4.70 | IC50 at 5 min (CYP3A4/5): > 20 µM
